Measured values reported in PMC4386773 (International Journal of Nanomedicine, 2015).
≈ marks a conversion by molar mass, not a printed value. Marks after values point to notes of the source that are not given here.

Experiments:
[1] = Nonparticulate PBPK modeling of SNX-2112 disposition in rats; type: in vivo; conditions: estimated by nonparticulate PBPK modeling
[2] = Solubility of SNX-2112 in water and oil; type: physicochemical
[3] = after oral administration; cited from earlier work

CLH (hepatic clearance) [1]: 0.0246 ^a L/h | solubility ([2]; soybean oil, oil or lipid): 5 µg/mL (≈ 10.8 µM) | solubility ([2]; water): 8 µg/mL (≈ 17.2 µM)
SMILES: CC1(C)CC(=O)c2c(C(F)(F)F)nn(-c3ccc(C(N)=O)c(N[C@H]4CC[C@H](O)CC4)c3)c2C1 [SNX-2112]
oral bioavailability [3]: hardly bioavailable
